Data on 25 compounds can be found in patent US10287301B2 (Achillion Pharmaceuticals, Inc., priority 2015, dated 2019).

Where only a bound is given, the exact number is not on record here.

Chain of Human Factor D (P00746 26-253): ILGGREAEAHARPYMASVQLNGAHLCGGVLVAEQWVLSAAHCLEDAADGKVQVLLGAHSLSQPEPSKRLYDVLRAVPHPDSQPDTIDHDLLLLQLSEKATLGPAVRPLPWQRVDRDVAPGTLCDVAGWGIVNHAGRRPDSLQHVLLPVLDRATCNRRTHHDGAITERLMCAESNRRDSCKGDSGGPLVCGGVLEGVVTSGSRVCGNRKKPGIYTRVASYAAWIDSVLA

One assay has as its target Human Factor D (Homo sapiens (Human), UniProt P00746). As to the kind of experiment: Human Factor D Assay. The assay is classed as biochemical.
Settings: not given
An outline of the steps:
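Thioesterase activity monitored with Z-L-Lys-SBzl plus Ellman's reagent (DTNB), each 100 μM final, after 5 min room-temperature compound preincubation of 80 nM human serum Factor D in pH 7.5 Tris (50 mM)/1M NaCl.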
For `Cc1cccc(NC(=O)[C@@H]2[C@H]3CC[C@H](C3)N2C(=O)Cn2cc(C(N)=O)c3cc(-c4ccc(F)nc4)ccc32)n1` [Compound 500, 5-(6-Fluoropyridin-3-yl)-1-(2-((1R,3S,4S)-3-(6-methylpyridin-2-ylcarbamoyl)-2-azabicyclo[2.2.1]heptan-2-yl)-2-oxoethyl)-1H-indole-3-carboxamide], the IC50 is more than 10000 nM.

For the compound `CC(=O)c1nn(CC(=O)N2C[Si](C)(C)C[C@H]2C(=O)Nc2cccc(Br)n2)c2ccc(-c3cnc(C)nc3)cc12` [Compound 514, (R)-1-(2-(3-acetyl-5-(2-Methylpyrimidin-5-yl)-1H-indazol-1-yl)acetyl)-N-(6-bromopyridin-2-yl)-3,3-dimethyl-1,3-azasilolidine-5-carboxamide], the IC50 lay in the range of 1000 to 10000 nM.

Still in this assay, the particulars now being: Table 3; Human Factor D 80 nM, substrate Z-L-Lys-SBzl; read-out: IC50 (Stars).
Consider `Cc1cccc(NC(=O)[C@@H]2[C@H]3CC[C@H](C3)N2C(=O)Cn2cc(C(N)=O)c3cc(-c4cccnc4)ccc32)n1` [Compound 501, 1-(2-((1R,3S,4S)-3-(6-Methylpyridin-2-ylcarbamoyl)-2-azabicyclo[2.2.1]heptan-2-yl)-2-oxoethyl)-5-(pyridin-3-yl)-1H-indole-3-carboxamide], for which the IC50 was more than 10000 nM.

With `CC(=O)c1nn(CC(=O)N2C[C@H](F)C[C@H]2C(=O)NC/C(F)=C(/C)c2cccc(Cl)c2)c2ccc(-c3cnc(C)nc3)cc12` [Compound 503, (2S,4R)-1-(2-(3-acetyl-5-(2-methylpyrimidin-5-yl)-1H-indazol-1-yl)acetyl)-N-((E)-3-(3-chlorophenyl)-2-fluorobut-2-en-1-yl)-4-fluoropyrrolidine-2-carboxamide], the 50% inhibitory concentration (IC50) is less than 1000 nM.

For the compound `CC(=O)c1nn(CC(=O)N2C[C@H](F)C[C@H]2C(=O)Nc2cccc(Br)n2)c2ccc(-c3ccc4ncncc4c3)cc12` [Compound 504, (2S,4R)-1-(2-(3-Acetyl-5-(quinazolin-6-yl)-1H-indazol-1-yl)acetyl)-N-(6-bromopyridin-2-yl)-4-fluoropyrrolidine-2-carboxamide], the IC50 was less than 1000 nM.

As to `CC(=O)c1nn(CC(=O)N2C[C@H](F)C[C@H]2C(=O)Nc2cccc(Br)n2)c2ccc(-c3cnc(OCC(F)(F)F)nc3)cc12` [Compound 505, (2S,4R)-1-(2-(3-Acetyl-5-(2-(S2,2,2-trifluoroethoxy)pyrimidin-5-yl)-1H-indazol-1-yl)acetyl)-N-(6-bromopyridin-2-yl)-4-fluoropyrrolidine-2-carboxamide], the IC50 is less than 1000 nM.

With `CC(=O)c1nn(CC(=O)N2[C@@H]3C[C@@H]3C[C@H]2C(=O)NC/C(F)=C(/C)c2cccc(Cl)c2)c2ccc(-c3cnc(C)nc3)cc12` [Compound 506, (1R,3S,5R)-2-(2-(3-Acetyl-5-(2-methylpyrimidin-5-yl)-1H-indazol-1-yl)acetyl)-N-((E)-3-(3-chlorophenyl)-2-fluorobut-2-en-1-yl)-2-azabicyclo[3.1.0]hexane-3-carboxamide], the half-maximal inhibitory concentration (IC50) was less than 1000 nM.

For `CC(=O)c1nn(CC(=O)N2C[C@H](F)C[C@H]2C(=O)Nc2cccc(Cl)c2)c2ccc(-c3cnc(C)nc3)cc12` [Compound 508, (2S,4R)-1-(2-(3-Acetyl-5-(2-methylpyrimidin-5-yl)-1H-indazol-1-yl)acetyl)-N-(3-chlorophenyl)-4-fluoropyrrolidine-2-carboxamide], the IC50 is less than 1000 nM.

Take `CC(=O)c1nn(CC(=O)N2C[C@H](F)C[C@H]2C(=O)Nc2ccc(F)c(Br)c2)c2ccc(-c3cnc(C)nc3)cc12` [Compound 509, (2S,4R)-1-(2-(3-Acetyl-5-(2-methylpyrimidin-5-yl)-1H-indazol-1-yl)acetyl)-N-(3-bromo-4-fluorophenyl)-4-fluoropyrrolidine-2-carboxamide]: the half-maximal inhibitory concentration (IC50) was less than 1000 nM.

Regarding `CC(=O)c1nn(CC(=O)N2C[C@@](F)(CF)C[C@H]2C(=O)Nc2nc(Br)ccc2C)c2ccc(-c3cnc(C)nc3)cc12` [Compound 511, (2S,4R)-1-(2-(3-Acetyl-5-(2-methylpyrimidin-5-yl)-1H-indazol-1-yl)acetyl)-N-(6-bromo-3-methylpyridin-2-yl)-4-fluoro-4-(fluoromethyl)pyrrolidine-2-carboxamide], the half-maximal inhibitory concentration (IC50) was less than 1000 nM.

For the compound `CC(=O)N[C@H]1[C@@H](C(=O)Nc2cccc(Br)n2)N(C(=O)Cn2nc(C(C)=O)c3cc(-c4cnc(C)nc4)ccc32)C[C@@H]1F` [Compound 512, (2S,3S,4S)-3-Acetamido-1-(2-(3-acetyl-5-(2-methylpyrimidin-5-yl)-1H-indazol-1-yl)acetyl)-N-(6-bromopyridin-2-yl)-4-fluoropyrrolidine-2-carboxamide], the half-maximal inhibitory concentration (IC50) was less than 1000 nM.

`CC(=O)N[C@@H]1CN(C(=O)Cn2nc(C(C)=O)c3cc(-c4cnc(C)nc4)ccc32)[C@H](C(=O)Nc2cccc(Br)n2)[C@H]1F` [Compound 513, (2R,3S,4R)-4-Acetamido-1-(2-(3-acetyl-5-(2-methylpyrimidin-5-yl)-1H-indazol-1-yl)acetyl)-N-(6-bromopyridin-2-yl)-3-fluoropyrrolidine-2-carboxamide]: the IC50 is less than 1000 nM.

`Cc1cccc(NC(=O)[C@@H]2[C@H]3CC[C@H](C3)N2C(=O)Cn2cc(C(N)=O)c3cc(-c4ccc5c(c4)CCCC5)ccc32)n1` [Compound 515, 1-(2-((1R,3S,4S)-3-(6-Methylpyridin-2-ylcarbamoyl)-2-azabicyclo[2.2.1]heptan-2-yl)-2-oxoethyl)-5-(5,6,7,8-tetrahydronaphthalen-2-yl)-1H-indole-3-carboxamide]: the IC50 was more than 10000 nM.

Consider `CC(=O)c1nn(CC(=O)N2[C@@H]3C[C@@H]3C[C@H]2C(=O)NC/C(F)=C(\C)c2cccc(Cl)c2)c2ccc(-c3cnc(C)nc3)cc12` [Compound 516, (1R,3S,5R)-2-(2-(3-Acetyl-5-(2-methylpyrimidin-5-yl)-1H-indazol-1-yl)acetyl)-N—((Z)-3-(3-chlorophenyl)-2-fluorobut-2-en-1-yl)-2-azabicyclo[3.1.0]hexane-3-carboxamide], for which the IC50 is less than 1000 nM.

Take `CC(=O)c1nn(CC(=O)N2C[C@H](F)C[C@H]2C(=O)Nc2nc(Br)c(F)cc2C)c2ccc(-c3cnc(C)nc3)cc12` [Compound 520, (2S,4R)-1-(2-(3-Acetyl-5-(2-methylpyrimidin-5-yl)-1H-indazol-1-yl)acetyl)-N-(6-bromo-5-fluoro-3-methylpyridin-2-yl)-4-fluoropyrrolidine-2-carboxamide]: the IC50 was less than 1000 nM.

With `CC(=O)c1nn(CC(=O)N2C[C@H](F)C[C@H]2C(=O)Nc2cccc(Br)n2)c2ccc(-c3cnc(S(C)(=O)=O)nc3)cc12` [Compound 521, (2S,4R)-1-(2-(3-Acetyl-5-(2-(methylsulfonyl)pyrimidin-5-yl)-1H-indazol-1-yl)acetyl)-N-(6-bromopyridin-2-yl)-4-fluoropyrrolidine-2-carboxamide], the half-maximal inhibitory concentration (IC50) is less than 1000 nM.

Take `CC(=O)c1nn(CC(=O)N2C[C@H](F)C[C@H]2C(=O)Nc2cccc(Br)n2)c2ccc(-c3cnc(-n4cccn4)nc3)cc12` [Compound 522, (2S,4R)-1-(2-(5-(2-(1H-Pyrazol-1-yl)pyrimidin-5-yl)-3-acetyl-1H-indazol-1-yl)acetyl)-N-(6-bromopyridin-2-yl)-4-fluoropyrrolidine-2-carboxamide]: the half-maximal inhibitory concentration (IC50) is less than 1000 nM.

As for `CC(=O)c1nn(CC(=O)N2[C@@H]3C[C@@H]3C[C@H]2C(=O)NC/C(F)=C(/C)c2ccccc2Cl)c2ccc(-c3cnc(C)nc3)cc12` [Compound 523], the IC50 was less than 1000 nM.

As to `CC(=O)c1nn(CC(=O)N2[C@@H]3C[C@@H]3C[C@H]2C(=O)NC/C(F)=C(\C)c2ccccc2Cl)c2ccc(-c3cnc(C)nc3)cc12` [Compound 528], the half-inhibitory concentration (IC50) was less than 1000 nM.

With `COC(=O)Cc1ncc(-c2ccc3c(c2)c(C(C)=O)nn3CC(=O)N2C[C@H](F)C[C@H]2C(=O)Nc2cccc(Br)n2)cn1` [Compound 529, methyl 2-(5-(3-acetyl-1-(2-((2S,4R)-2-((6-bromopyridin-2-yl)carbamoyl)-4-fluoropyrrolidin-1-yl)-2-oxoethyl)-1H-indazol-5-yl)pyrimidin-2-yl)acetate], the IC50 was less than 1000 nM.

As to `CC(=O)c1nn(CC(=O)N2[C@@H](C)CC[C@H]2C(=O)Nc2cccc(Br)n2)c2ccc(-c3cnc(C)nc3)cc12` [Compound 530, (2S,5S)-1-(2-(3-Acetyl-5-(2-methylpyrimidin-5-yl)-1H-indazol-1-yl)acetyl)-N-(6-bromopyridin-2-yl)-5-methylpyrrolidine-2-carboxamide], the IC50 is less than 1000 nM.

For `CSc1ncc(-c2ccc3c(c2)c(C(C)=O)nn3CC(=O)N2C[C@H](F)C[C@H]2C(=O)Nc2cccc(Br)n2)cn1` [Compound 531, (2S,4R)-1-(2-(3-Acetyl-5-(2-(methylthio)pyrimidin-5-yl)-1H-indazol-1-yl)acetyl)-N-(6-bromopyridin-2-yl)-4-fluoropyrrolidine-2-carboxamide], the half-inhibitory concentration (IC50) was less than 1000 nM.

Turning to `CC(=O)c1nn(CC(=O)N2C[C@H](F)C[C@H]2C(=O)Nc2cccc(Br)n2)c2ccc(-c3cnc(CC(N)=O)nc3)cc12` [Compound 532, (2S,4R)-1-(2-(3-Acetyl-5-(2-(2-amino-2-oxoethyl)pyrimidin-5-yl)-1H-indazol-1-yl)acetyl)-N-(6-bromopyridin-2-yl)-4-fluoropyrrolidine-2-carboxamide], the half-inhibitory concentration (IC50) was less than 1000 nM.

For the compound `CC(=O)c1nn(CC(=O)N2C[C@H](F)C[C@H]2C(=O)Nc2cccc(Br)n2)c2ccc(-c3cnc(CC(=O)O)nc3)cc12` [Compound 533, 2-(5-(3-Acetyl-1-(2-((2S,4R)-2-((6-bromopyridin-2-yl)carbamoyl)-4-fluoropyrrolidin-1-yl)-2-oxoethyl)-1H-indazol-5-yl)pyrimidin-2-yl)acetic acid], the IC50 is less than 1000 nM.

For `CCc1ccc(Br)nc1NC(=O)[C@@H]1C[C@@H](F)CN1C(=O)Cn1nc(C(C)=O)c2cc(-c3cnc(C)nc3)ccc21` [Compound 534, (2S,4R)-1-(2-(3-Acetyl-5-(2-methylpyrimidin-5-yl)-1H-indazol-1-yl)acetyl)-N-(6-bromo-3-ethylpyridin-2-yl)-4-fluoropyrrolidine-2-carboxamide], the 50% inhibitory concentration (IC50) was less than 1000 nM.

For orientation: IC50 means the midpoint of a concentration-inhibition curve.
